Laboratory results as given in patent publication US20230265116A1, “DEGRADATION OF (EGFR) BY CONJUGATION OF EGFR INHIBITORS WITH E3 LIGASE LIGAND AND METHODS OF USE” (BEIGENE, LTD., priority 2020, published 2023).

Tests used:
[1] = tested on: EGFR Del19/T790M/C797S (H1975-clone #28); experiment: EGFR degradation HTRF assay, H1975-clone #28 DTC cells; assay type: cell-based; conditions: H1975 # 28 DTC cells; for DC50: EGFR degradation, IC50 (DC50) from curve fit, read-out: DC50(nM) H1975 # 28 DTC; for Dmax (%) H1975 # 28 DTC: maximum percentage of inhibition (degradation)
Description: H1975-clone #28(Del19/T790M/C797S) and H1975-clone #23(Del19/C797S). EGFR-Del19/T790M/C797S and EGFR-Del19/C797S were stably expressed in H1975 cell lines by lentivirus-mediated over-expression, respectively. The EGFR over-expressed cells then underwent gene knockout, in which the EGFR targeting sgRNA was designed to only target the endogenous EGFR copies and preserve the exogenous EGFR copies. Followed by the gene knockout, the edited H1975 cells were seeded in 96 well plates at the concentration of 1 cell/well, cultured for about 2 weeks to allow single clones formation. The formed clones were screened by DNA sequencing and whole exon sequencing analysis for the desired edition. H1975-clone #28 and H1975-clone #23 were finally confirmed as homozygous Del19/T790M/C797S EGFR and Del19/C797S EGFR clones, respectively.
(§1) BaF3 WT(wild type), BaF3-LTC(L858R/T790M/C797S) and BaF3-DTC(Del19/T790M/C797S) cells are treated with compounds diluted in 0.2% DMSO cell culture medium and incubate for 16h, 37° C., 5% CO2, H1975-#36, H1975-#28, H1975-#23 and HCC827 cells are treated with compounds diluted in 0.2% DMSO cell culture medium on day 2, incubate for 16h, 37° C., 5% CO2.the final concentriation of compounds in all assay is start with 10 uM, 5-fold dilution, total 8 doses were included.
(§2) After 16h treatment, add HTRF lysis buffer to each well; seal the plate and incubate 1 hour at room temperature on a plate shaker; Once the cells are lysed, 16 μL of cell lysate are transferred to a PE 384-well HTRF detection plate; 4 μL of pre-mixed HTRF antibodies are added to each well; Cover the plate with a plate sealer, spin 1000 rpm for 1 min, Incubate overnight at room temperature; Read on BMG PheraStar with HTRF protocol (337 nm-665 nm-620 nm).
(§3) The inhibition (degradation) percentage of the compound was calculated by the following equation: Inhibition percentage of Compound=100-100×(Signal-low control)/(High control-low control), wherein signal=each test compound group
(§4) High control=Cell group with added DMSO and without compound, indicating microplate readings without EGFR degradation;
(§5) Dmax is the maximum percentage of inhibition (degradation).
(§6) The IC50 (DC50) value of a compound can be obtained by fitting the following equation
(§7) Y=Bottom+(TOP−Bottom)/(1+((IC50/X)^hillslope))
(§8) Wherein, X and Y are known values, and IC50, Hillslope, Top and Bottom are the parameters obtained by fitting with software. Y is the inhibition percentage (calculated from the equation), X is the concentration of the compound; IC50 is the concentration of the compound when the 50% inhibition is reached. The smaller the IC50 value is, the stronger the inhibitory ability of the compound is. Vice versa, the higher the IC50 value is, the weaker the inhibitory ability of the compound is; Hillslope represents the slope of the fitted curve, generally around 1*; Bottom represents the minimum value of the curve obtained by data fitting, which is generally 0%±20%; Top represents the maximum value of the curve obtained by data fitting, which is generally 100%±20%. The experimental data were fitted by calculating and analyzing with Dotmatics data analysis software.

[2] = biological target: T1, EGFR L858R/T790M/C797S (BaF3-LTC cells) (Homo sapiens, UniProt P00533, C797S/L858R/T790M); experiment: EGFR degradation HTRF assay, BaF3-LTC cells; assay type: cell-based; conditions: BaF3-LTC cells; for DC50: EGFR degradation, IC50 (DC50) from curve fit, read-out: DC50(nM) BaF3-LTC; for Dmax: read-out: Dmax (%) BaF3-LTC
T1 construct: expressed in transfected cells; host or cells: BaF3
Description: as §1, §2, §3, §4, §5, §6, §7, §8

[3] = maximum percentage of inhibition (degradation)

T1 sequence (P00533 25-1210 T790M/C797S/L858R): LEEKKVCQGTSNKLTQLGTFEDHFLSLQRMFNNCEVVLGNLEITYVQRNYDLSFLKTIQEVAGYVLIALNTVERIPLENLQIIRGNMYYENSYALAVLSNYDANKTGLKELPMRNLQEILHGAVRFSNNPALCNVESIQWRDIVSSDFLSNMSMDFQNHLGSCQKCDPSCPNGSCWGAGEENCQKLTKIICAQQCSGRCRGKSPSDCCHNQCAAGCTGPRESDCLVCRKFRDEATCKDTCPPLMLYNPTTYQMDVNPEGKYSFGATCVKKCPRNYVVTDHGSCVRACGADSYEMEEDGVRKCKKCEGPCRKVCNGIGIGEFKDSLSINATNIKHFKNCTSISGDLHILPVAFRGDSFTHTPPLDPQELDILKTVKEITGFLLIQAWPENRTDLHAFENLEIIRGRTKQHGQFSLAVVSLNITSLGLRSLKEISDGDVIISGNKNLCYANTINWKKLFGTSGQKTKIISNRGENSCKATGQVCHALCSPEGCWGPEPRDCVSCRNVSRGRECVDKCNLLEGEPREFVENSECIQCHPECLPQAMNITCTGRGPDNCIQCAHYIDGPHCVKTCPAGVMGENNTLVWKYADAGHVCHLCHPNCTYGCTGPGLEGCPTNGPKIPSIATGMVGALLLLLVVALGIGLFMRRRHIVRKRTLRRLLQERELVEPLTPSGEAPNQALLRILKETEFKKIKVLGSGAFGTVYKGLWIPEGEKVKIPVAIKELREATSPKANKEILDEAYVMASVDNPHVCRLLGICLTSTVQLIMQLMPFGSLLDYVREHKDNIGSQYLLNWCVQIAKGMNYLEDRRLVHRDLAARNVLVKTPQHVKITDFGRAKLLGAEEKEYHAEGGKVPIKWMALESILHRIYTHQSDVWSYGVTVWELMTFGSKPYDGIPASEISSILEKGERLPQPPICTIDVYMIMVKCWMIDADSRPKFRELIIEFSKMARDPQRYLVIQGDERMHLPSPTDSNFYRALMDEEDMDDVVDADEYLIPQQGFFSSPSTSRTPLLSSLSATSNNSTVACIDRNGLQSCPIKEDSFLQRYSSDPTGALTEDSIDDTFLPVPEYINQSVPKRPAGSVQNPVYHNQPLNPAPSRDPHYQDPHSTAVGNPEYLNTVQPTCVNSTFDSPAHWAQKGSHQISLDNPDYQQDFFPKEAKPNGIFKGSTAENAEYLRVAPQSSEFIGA

SMILES | DC50 [1] | DC50 [2] | Dmax [2, 3] | Dmax (%) BaF3-LTC [2, 3] | Dmax (%) H1975 # 28 DTC [1]
CCOc1cc(N2CCC(N3CCN(CCc4cc(F)c(F)c5c4n(CC)c(=O)n5C4CCC(=O)NC4=O)CC3)CC2)c(CC)cc1Nc1ncc(Br)c(Nc2ccc3c(=O)n(CC)ncc3c2P(C)(C)=O)n1 (stereo not shown) [Example 743, 3-(4-(2-(4-(1-(4-((5-bromo-4-((5-(dimethylphosphoryl)-2-ethyl-1-oxo-1,2-dihydrophthalazin-6-yl)amino)pyrimidin-2-yl)amino)-5-ethoxy-2-ethylphenyl)piperidin-4-yl)piperazin-1-yl)ethyl)-3-ethyl-6,7-difluoro-2-oxo-2,3-dihydro-1H-benzo[d]imidazol-1-yl)piperidine-2,6-dione] | 2.42 nM | 55.9 nM | 79.7% | – | 75.96%
CCOc1cc(N2CCC(N3CCN(CCc4c(F)cc(F)c5c4oc(=O)n5C4CCC(=O)NC4=O)CC3)CC2)c(CC)cc1Nc1ncc(Br)c(Nc2ccc3nc(CC)ccc3c2P(C)(C)=O)n1 (stereo not shown) [Example 731, 3-(7-(2-(4-(1-(4-((5-bromo-4-((5-(dimethylphosphoryl)-2-ethylquinolin-6-yl)amino)pyrimidin-2-yl)amino)-5-ethoxy-2-ethylphenyl)piperidin-4-yl)piperazin-1-yl)ethyl)-4,6-difluoro-2-oxobenzo[d]oxazol-3(2H)-yl)piperidine-2,6-dione] | 4.55 nM | 42.5 nM | – | – | 93.44%
CCOc1cc(N2CCC(N3CCN(C[C@H]4CCN(c5cccc6c5oc(=O)n6C5CCC(=O)NC5=O)C4)CC3)CC2)c(CC)cc1Nc1ncc(Br)c(Nc2ccc3c(=O)n(CC)ncc3c2P(C)(C)=O)n1 (stereo partly drawn) [Example 611, 3-(7-((R)-3-((4-(1-(4-((5-bromo-4-((5-(dimethylphosphoryl)-2-ethyl-1-oxo-1,2-dihydrophthalazin-6-yl)amino)pyrimidin-2-yl)amino)-5-ethoxy-2-ethylphenyl)piperidin-4-yl)piperazin-1-yl)methyl)pyrrolidin-1-yl)-2-oxobenzo[d]oxazol-3(2H)-yl)piperidine-2,6-dione] | 5.69 nM | 83.4 nM | – | 86.27% | 70.37%
CCOc1cc(N2CCC(N3CCN(CCCc4cc(OC)cc5c4oc(=O)n5C4CCC(=O)NC4=O)CC3)CC2)c(CC)cc1Nc1ncc(Br)c(Nc2ccc3nc(CC)ccc3c2P(C)(C)=O)n1 (stereo not shown) [Example 597, 3-(7-(3-(4-(1-(4-((5-bromo-4-((5-(dimethylphosphoryl)-2-ethylquinolin-6-yl)amino)pyrimidin-2-yl)amino)-5-ethoxy-2-ethylphenyl)piperidin-4-yl)piperazin-1-yl)propyl)-5-methoxy-2-oxobenzo[d]oxazol-3(2H)-yl)piperidine-2,6-dione] | 1.59 nM | 28.2 nM | 90.1% | – | 75.93%
CCc1cc(Nc2ncc(Br)c(Nc3ccc4nc(C)ccc4c3P(C)(C)=O)n2)c(OC)cc1N1CCC(N2CCN(C(=O)[C@@H]3CN(c4cc(F)c([C@H]5CCC(=O)NC5=O)c(F)c4)CC3(C)C)CC2)CC1 [Example 662, (R)-3-(4-((S)-4-(4-(1-(4-((5-bromo-4-((5-(dimethylphosphoryl)-2-methylquinolin-6-yl)amino)pyrimidin-2-yl)amino)-2-ethyl-5-methoxyphenyl)piperidin-4-yl)piperazine-1-carbonyl)-3,3-dimethylpyrrolidin-1-yl)-2,6-difluorophenyl)piperidine-2,6-dione] | 2.23 nM | 5.4 nM | 97% | – | 89.14%

These reach a lower DC50 [1]. Values come first.

DC50 [1] | DC50 [2] | Dmax [2, 3] | Dmax (%) BaF3-LTC [2, 3] | SMILES | Dmax (%) H1975 # 28 DTC [1]
0.763 nM | 3.89 nM | 93.1% | – | CCc1cc(Nc2ncc(Br)c(Nc3cc(F)c4nc(C)ccc4c3P(C)(C)=O)n2)c(OC)cc1N1CCC(N2CCN(CCc3cc(F)c([C@H]4CCC(=O)NC4=O)c(F)c3)CC2)CC1 [Example 510, (R)-3-(4-(2-(4-(1-(4-((5-bromo-4-((5-(dimethylphosphoryl)-8-fluoro-2-methylquinolin-6-yl)amino)pyrimidin-2-yl)amino)-2-ethyl-5-methoxyphenyl)piperidin-4-yl)piperazin-1-yl)ethyl)-2,6-difluorophenyl)piperidine-2,6-dione] | 67.2%
0.818 nM | 17 nM | 85.5% | – | CCOc1cc(N2CCC(N3CCN(CCc4ccc(F)c5c4n(CC)c(=O)n5C4CCC(=O)NC4=O)CC3)CC2)c(CC)cc1Nc1ncc(Br)c(Nc2ccc3c(=O)n(CC)ncc3c2P(C)(C)=O)n1 (stereo not shown) [Example 594, 3-(4-(2-(4-(1-(4-((5-bromo-4-((5-(dimethylphosphoryl)-2-ethyl-1-oxo-1,2-dihydrophthalazin-6-yl)amino)pyrimidin-2-yl)amino)-5-ethoxy-2-ethylphenyl)piperidin-4-yl)piperazin-1-yl)ethyl)-3-ethyl-7-fluoro-2-oxo-2,3-dihydro-1H-benzo[d]imidazol-1-yl)piperidine-2,6-dione] | 85.75%
1.03 nM | 5.8 nM | 91.9% | – | CCOc1cc(N2CCC(N3CCN(C(=O)[C@@H]4CCN(c5cc(F)c([C@H]6CCC(=O)NC6=O)c(F)c5)C4)CC3)CC2)c(C)cc1Nc1ncc(Br)c(Nc2ccc3c(=O)n(C)ncc3c2P(C)(C)=O)n1 [Example 529, (R)-3-(4-((R)-3-(4-(1-(4-((5-bromo-4-((5-(dimethylphosphoryl)-2-methyl-1-oxo-1,2-dihydrophthalazin-6-yl)amino)pyrimidin-2-yl)amino)-5-ethoxy-2-methylphenyl)piperidin-4-yl)piperazine-1-carbonyl)pyrrolidin-1-yl)-2,6-difluorophenyl)piperidine-2,6-dione] | 85.06%
1.19 nM | 6.28 nM | 79.4% | – | CCc1ccc2c(P(C)(C)=O)c(Nc3nc(Nc4cc(CC)c(N5CCC(N6CCN(CCc7c(F)ccc8c7oc(=O)n8C7CCC(=O)NC7=O)CC6)CC5)cc4OC)ncc3Br)ccc2n1 (stereo not shown) [Example 444, 3-(7-(2-(4-(1-(4-((5-bromo-4-((5-(dimethylphosphoryl)-2-ethylquinolin-6-yl)amino)pyrimidin-2-yl)amino)-2-ethyl-5-methoxyphenyl)piperidin-4-yl)piperazin-1-yl)ethyl)-6-fluoro-2-oxobenzo[d]oxazol-3(2H)-yl)piperidine-2,6-dione] | 79.58%
0.707 nM | 8.12 nM | 85.9% | – | CCc1ccc2c(P(C)(C)=O)c(Nc3nc(Nc4cc(C5CC5)c(N5CCC(N6CCN(CCc7cc(F)c([C@H]8CCC(=O)NC8=O)c(F)c7)CC6)CC5)cc4OC)ncc3Br)ccc2n1 [Example 550, (R)-3-(4-(2-(4-(1-(4-((5-bromo-4-((5-(dimethylphosphoryl)-2-ethylquinolin-6-yl)amino)pyrimidin-2-yl)amino)-2-cyclopropyl-5-methoxyphenyl)piperidin-4-yl)piperazin-1-yl)ethyl)-2,6-difluorophenyl)piperidine-2,6-dione] | 87.71%
0.64 nM | 3.14 nM | 96.4% | – | CCOc1cc(N2CCC(N3CCN(CCc4ccc5c(c4)oc(=O)n5C4CCC(=O)NC4=O)CC3)CC2)c(CC)cc1Nc1ncc(Br)c(Nc2ccc3nc(C)ccc3c2P(C)(C)=O)n1 (stereo not shown) [Example 676, 3-(6-(2-(4-(1-(4-((5-bromo-4-((5-(dimethylphosphoryl)-2-methylquinolin-6-yl)amino)pyrimidin-2-yl)amino)-5-ethoxy-2-ethylphenyl)piperidin-4-yl)piperazin-1-yl)ethyl)-2-oxobenzo[d]oxazol-3(2H)-yl)piperidine-2,6-diQne] | 88.89%
